The results in this text go back to ChEMBL document CHEMBL2417501, “Synthesis of 4-aminoquinoline-pyrimidine hybrids as potent antimalarials and their mode of action studies” (Eur J Med Chem, 2013).

The subject of this assay is Vaccinia virus. Briefly: Antiviral activity against Vaccinia virus infected in human HEL cells assessed as reduction of virus-induced cytopathogenicity. The class given is functional, organism-based. The note with it: Orthopoxvirus vaccinia.

Broadly, the EC50 is the midpoint of the concentration-response curve. Turning to `COC(=O)c1c(C)nc(NCCCNc2ccnc3cc(Cl)ccc23)nc1-c1ccccc1`, the EC50 was more than 20 µM.
As for `Cc1nc(NCCCCNc2ccnc3cc(Cl)ccc23)nc(-c2ccccc2)c1C(=O)OC(C)C`, the figure is more than 4 µM; as for `CCOC(=O)c1c(C)nc(NCCCCNc2ccnc3cc(Cl)ccc23)nc1-c1ccccc1[N+](=O)[O-]`, more than 4 µM.
The figure for `CCOC(=O)c1c(C)nc(OCCCNc2ccnc3cc(Cl)ccc23)nc1-c1ccccc1` is more than 100 µM.
The figure for `CCOC(=O)c1c(C)nc(NCCCCNc2ccnc3cc(Cl)ccc23)nc1-c1ccc(Cl)cc1` is more than 20 µM; for `CCOC(=O)c1c(C)nc(NCCCCNc2ccnc3cc(Cl)ccc23)nc1-c1ccc(F)cc1` it is more than 100 µM; for `CCOC(=O)c1cnc(NCCCCNc2ccnc3cc(Cl)ccc23)nc1C` it is more than 100 µM.
`Nc1nc2c(ncn2COCCO)c(=O)[nH]1` [ACYCLOVIR]: the half-maximal effective concentration (EC50) was more than 250 µM.
In the case of `O=c1[nH]c(=O)n([C@H]2C[C@H](O)[C@@H](CO)O2)cc1/C=C/Br` [BRIVUDINE], the EC50 stood at 5 µM.
The figure for `Nc1ccn(C[C@@H](CO)OCP(=O)(O)O)c(=O)n1` [CIDOFOVIR] is 17 µM.
As for `Nc1nc2c(ncn2COC(CO)CO)c(=O)[nH]1` [GANCICLOVIR], the figure is more than 100 µM.
